Laboratory results from patent US20240181068A1, “SELECTIVE NEUTRAL PH INHIBITOR OF CATHEPSIN B” (The Regents of the University of California, priority 2021, published 2024).

Key:
Format in all cases: biochemical
cathepsin C = target: T1, cathepsin C (Homo sapiens, UniProt P53634); test: Specificity of inhibitors: cathepsin C (Gly-Arg-AMC substrate)
T1 construct: purchased R&D Systems 1071-CY-010
Description: (§1) Specificity of inhibitors for other cysteine cathepsin proteases. The effects of Z-Arg-Lys-AOMK and Z-Glu-Lys-AOMK on cathepsin V, L, K, S, X, H and C activities were assessed. IC50 values were calculated at pH 4.6 and pH 7.2 conditions, consisting of 40 mM citrate phosphate, 1 mM EDTA, 100 mM NaCl, and 5 mM DTT. The inhibitor concentrations ranged from 16.38 μM to 256 nM with 2-fold serial dilutions. […] Cathepsin V (0.04 ng/μL), cathepsin L (0.03 ng/μL), cathepsin K (0.10 ng/μL), cathepsin S (0.20 ng/uL) were assayed with 40 μM Z-Phe-Arg-AMC. Cathepsin X (0.20 ng/uL), cathepsin C (0.51 ng/uL) and cathepsin H (0.1 ng/μL) were assayed with 40 μM of MCA-Arg-Pro-Pro-Gly-Phe-Ser-Ala-Phe-Lys(Dnp)OH (SEQ ID NO: 2), Gly-Arg-AMC, and Arg-AMC, respectively. Activation of pro-cathepsin H to cathepsin H was conducted by incubation of cathepsin H (4.4 ng/μL) with cathepsin L (1.1 ng/μL) at RT for 2 hrs in activation buffer (20 mM citrate phosphate pH 6.0, 100 mM NaCl, and 5 mM DTT). Cathepsin C (13.78 ng/μL) was activated by incubation with cathepsin L (3.4 ng/μL) at RT for one hr in activation buffer (20 mM citrate phosphate, pH 6.0, 100 mM NaCl, 5 mM DTT). […] For all assays containing peptide-AMC substrates the fluorescent microplate reader settings were the same as outlined above for cathepsin B. For the cathepsin X assay, the plate reader was set to excitation 320 nm, emission 400 nm, gain 105, top optics and read height 1 mm. To convert RFU/s to picomol/min, 10 μM to 0.005 μM (2-fold serial dilution) of MCA-Arg-Pro-Pro-Gly-Phe-Ser-Ala-Phe-Lys(Dnp)OH (SEQ ID NO: 2) was fully hydrolyzed with excess cathepsin X and a standard curve was generated using the total fluorescence values calculated at each concentration.

cathepsin L = target: T2, cathepsin L (Homo sapiens, UniProt P07711); test: Specificity of inhibitors: cathepsin L (Z-Phe-Arg-AMC substrate)
T2 construct: purchased R&D Systems 952-CY-010
T2 sequence (P07711 114-333): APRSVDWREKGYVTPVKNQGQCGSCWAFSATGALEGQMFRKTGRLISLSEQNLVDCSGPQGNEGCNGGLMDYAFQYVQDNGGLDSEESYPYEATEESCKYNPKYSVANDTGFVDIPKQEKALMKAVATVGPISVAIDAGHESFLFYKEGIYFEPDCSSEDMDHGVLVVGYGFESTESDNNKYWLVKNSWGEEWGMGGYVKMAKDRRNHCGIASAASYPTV
Description: as §1

cathepsin V = target: T3, cathepsin V (Homo sapiens, UniProt O60911); test: Specificity of inhibitors: cathepsin V (Z-Phe-Arg-AMC substrate)
T3 construct: purchased R&D Systems 1080-CY-010
T3 sequence (O60911 114-334): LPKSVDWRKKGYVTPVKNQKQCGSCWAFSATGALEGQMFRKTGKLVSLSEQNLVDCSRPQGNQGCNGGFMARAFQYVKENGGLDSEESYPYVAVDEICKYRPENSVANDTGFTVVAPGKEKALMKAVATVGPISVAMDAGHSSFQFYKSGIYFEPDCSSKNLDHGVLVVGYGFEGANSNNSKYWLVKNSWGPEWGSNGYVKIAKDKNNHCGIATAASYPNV
Description: as §1

cathepsin B = target: T4, cathepsin B (Homo sapiens, UniProt P07858); test: Cathepsin B inhibitor kinetic characterization, fluorogenic assay with Z-Phe-Arg-AMC; conditions: for reduction of cathepsin B activity: 64 nM inhibitor; for kinact/KI / Ki / IC50: cathepsin B
T4 construct: purchased R&D Systems 953-CY-010
Description: Inhibitor kinetic characterization using fluorogenic assays for cathepsin B activity. Kinetic analyses of IC50, K1, kobs, and kinact/K1 values for Z-Arg-Lys-AOMK and Z-Glu-Lys-AOMK inhibition of cathepsin B were conducted by fluorogenic proteolytic assays consisting of 40 μM Z-Phe-Arg-AMC, 40 mM citrate phosphate at pH 7.2 or pH 4.6, 1 mM EDTA, 100 mM NaCl, 5 mM DTT, and 0.01% Tween 20; assays were performed at room temperature (22-27° C.) in quadruplicate. Inhibitor and substrate were combined in the reaction well, and the assay was started upon addition of cathepsin B (0.04 ng/μL). The inhibitor concentration ranged from 5.5 μM to 1.1 nM (1.5-fold serial dilution). A vehicle control assay contained 2% DMSO instead of inhibitor. Enzyme velocity (RFU/sec) was measured during a […] incubation period as relative fluorescent units per sec (RFU/s), calculated using the highest slope recorded for 10 consecutive readings taken at 46 sec intervals (thus, activity is calculated over a total of 460 sec). Prism software was used to analyze enzyme activity data in kinetic studies. IC50 values were calculated (without preincubation of inhibitor and enzyme) as the concentration of inhibitor that reduced cathepsin B activity by 50%.
For determination of K1 and kinact/K1 kinetic inhibition constants, kobs constants were determined by plots of cathepsin B activity in time courses with different inhibitor concentrations by curve fitting slope data of RFU versus time into Y=Y0*e^(−kobs*^X), where Y0 is the activity for the control with no inhibitor condition, Y is the activity in the presence of inhibitor, X is time. K1 and kinact values were calculated from curve fitting the kobs values into the equation kobs=kinact*[I]/(K1+[I]), where [I] is inhibitor concentration, and K1 is the x-axis inhibitor concentration where y=kinact/2 and kinact is the maximum rate of inactivation at saturating inhibitor concentrations (93, 94). These kinetic analyses are for irreversible inhibitors, Z-Arg-Lys-AOMK and Z-Glu-Lys-AOMK of this study, that utilize Ki values, rather than Ki values used for reversible inhibitors (93).

T1 sequence (P53634 25-134 limits assumed): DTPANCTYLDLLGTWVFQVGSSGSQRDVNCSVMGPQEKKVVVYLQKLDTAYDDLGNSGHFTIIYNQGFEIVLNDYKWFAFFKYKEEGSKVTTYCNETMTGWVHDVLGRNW
T1 sequence (P53634 231-394 limits assumed): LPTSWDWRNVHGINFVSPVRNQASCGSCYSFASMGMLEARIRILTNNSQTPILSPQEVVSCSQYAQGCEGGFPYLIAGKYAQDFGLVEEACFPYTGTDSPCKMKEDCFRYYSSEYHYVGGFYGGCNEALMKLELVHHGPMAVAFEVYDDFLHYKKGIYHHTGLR
T1 sequence (P53634 395-463 limits assumed): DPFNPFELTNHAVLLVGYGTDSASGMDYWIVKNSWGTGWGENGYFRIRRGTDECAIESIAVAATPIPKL

IC50 (cathepsin C; cathepsin C, pH 4.6): > 16000 nM
inhibition at 16 µM (cathepsin C; cathepsin C, pH 4.6, 16,000 nM inhibitor): 6%
IC50 (cathepsin C; cathepsin C, pH 7.2): 850 nM
inhibition of cathepsin C (cathepsin C; pH 4.6, inhibitor at 16 μM): minimal inhibition
fold more potent for cathepsin B than cathepsin C (cathepsin C; pH 7.2, from IC50): 43 fold
IC50 (cathepsin L; cathepsin L, pH 4.6): > 16000 nM
inhibition at 16 µM (cathepsin L; cathepsin L, pH 4.6, 16,000 nM inhibitor): 32%
inhibition of cathepsin L (cathepsin L; pH 4.6, inhibitor at 16 μM): minimal inhibition
IC50 (cathepsin V; cathepsin V, pH 4.6): > 16000 nM
inhibition at 16 µM (cathepsin V; cathepsin V, pH 4.6, 16,000 nM inhibitor): 63%
IC50 (cathepsin V; cathepsin V, pH 7.2): 440 nM
inhibition of cathepsin V (cathepsin V; pH 4.6, inhibitor at 16 μM): minimal inhibition
fold more potent for cathepsin B than cathepsin V (cathepsin V; pH 7.2, from IC50): 22 fold
reduction of cathepsin B activity (cathepsin B; pH 4.6, Z-Phe-Arg-AMC substrate): 5%
reduction of cathepsin B activity (cathepsin B; pH 7.2, Z-Phe-Arg-AMC substrate): 93%
kinact/KI (cathepsin B; pH 4.6): 1800 M⁻¹ s⁻¹
Ki (cathepsin B; pH 4.6, irreversible inhibitor): 15000 nM
IC50 (cathepsin B; pH 4.6, without preincubation): 1500 nM
IC50 (cathepsin B; pH 6.8 (data not shown)): 22 nM
kinact/KI (cathepsin B; pH 7.2): 110000 M⁻¹ s⁻¹
Ki (cathepsin B; pH 7.2, irreversible inhibitor): 130 nM
IC50 (cathepsin B; pH 7.2, without preincubation): 20 nM
SMILES: Cc1cccc(C)c1C(=O)OCC(=O)C(CCCCN)NC(=O)C(CCCNC(=N)N)NC(=O)OCc1ccccc1 (stereo not drawn) [Z-Arg-Lys-AOMK]
